Target: T1, recombinant human MNL phosphodiesterase type IV B (Homo sapiens, UniProt Q07343)
T1 construct: FLAG; made in house; host or cells: insect cells infected with recombinant baculovirus
Assay: Inhibition of recombinant human mononuclear lymphocyte (MNL) phosphodiesterase type IV B produced in insect cells with a baculovirus vector
Assay type: biochemical
Details: remaining enzyme activity versus control
Protocol: Inhibition of Recombinant Human Mononuclear Lymphocyte (MNL) Phosphodiesterase Type IV B Produced in Insect Cells with a Baculovirus Vector
The alleviating and/or curing effect of the instant compounds on allergic and atopic diseases was assessed by an in vitro assay system to detect an inhibiting effect on the recombinant human MNL phosphodiesterase type IV B.
Seventy-two hours after infection with recombinant baculovirus, the insect cells were harvested and pelleted at 500 g for 5 minutes. The cells were lysed in 10 ml lysis-buffer consisting of 20 mM Tris, 10 mM EGTA, 2 mM Na2EDTA, 1% Triton-X-100, 1 mM Na3VO4, 10 mM NaF, 2 μg/ml of leupeptine, pepstatine and aprotinine, 0.3 μg/ml benzamidine and 100 μg/ml TPCK pH 7.5. After 5 minutes on ice, solubilized cells were centrifuged at 4000 rpm for 15 minutes at 4° C. The resulting supernatant was filtered through a 0.45 μm filter (Millipore) and brought to TBS buffer (50 mM Tris, 150 mM NaCl pH 7.4).
The supernatant containing phosphodiesterase (PDE) type IV B, was subsequently loaded onto a 5 ml anti-FLAG-M2 affinity gel column, previously activated with 5 ml 100 mM glycine pH 3.5 and equilibrated with 20 ml 50 mM Tris, 150 mM NaCl pH 7.4. After washing the column with equilibration buffer, PDE IV was eluted in 1.5 ml fractions containing 37.5 μl IM Tris pH 8. The fractions were dialyzed overnight against 20 mM Tris, 2mM Na2EDTA and 400 mM NaCl pH 7.5 and tested for PDE IV activity. Identification was done on SDS PAGE and Western Blot (anti-FLAG-M2). Active fractions were pooled, brought to 10% glycerol and stored at −70° C.
The incubation mixture (pH 8) (200 μl) contained 20 mM Tris, 10 mM magnesium sulphate, 0.8 μM ^3H-cAMP (310 mCi/mmole) and the phosphodiesterase type IV, the amount depending on the enzymatic activity. […]
The inhibiting effect of the present compounds on recombinant human MNL phosphodiesterase PDE IV B was measured at different concentrations of the instant compounds.

T1 sequence (Q07343 whole entry): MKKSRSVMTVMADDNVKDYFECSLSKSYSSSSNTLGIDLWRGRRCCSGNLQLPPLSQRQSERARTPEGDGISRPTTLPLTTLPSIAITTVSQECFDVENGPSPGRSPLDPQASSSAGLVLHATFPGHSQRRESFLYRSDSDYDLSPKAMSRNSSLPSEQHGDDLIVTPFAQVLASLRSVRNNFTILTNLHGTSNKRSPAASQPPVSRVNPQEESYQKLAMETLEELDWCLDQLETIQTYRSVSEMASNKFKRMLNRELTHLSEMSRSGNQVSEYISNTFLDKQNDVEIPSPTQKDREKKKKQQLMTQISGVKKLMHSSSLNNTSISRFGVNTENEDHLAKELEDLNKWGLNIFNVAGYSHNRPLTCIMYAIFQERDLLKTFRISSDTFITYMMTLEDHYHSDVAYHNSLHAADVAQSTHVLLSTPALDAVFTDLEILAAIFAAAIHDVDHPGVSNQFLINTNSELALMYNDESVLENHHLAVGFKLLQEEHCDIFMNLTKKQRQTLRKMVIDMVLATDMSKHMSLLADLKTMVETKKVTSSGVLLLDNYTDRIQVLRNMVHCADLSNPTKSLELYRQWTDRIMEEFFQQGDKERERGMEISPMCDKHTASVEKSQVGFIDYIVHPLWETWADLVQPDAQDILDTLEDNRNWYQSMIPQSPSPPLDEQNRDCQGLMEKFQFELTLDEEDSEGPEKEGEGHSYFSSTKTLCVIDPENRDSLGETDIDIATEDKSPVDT

SMILES	% Activity (% activity of PDE IV B versus control) (Test Dose 10^−6 M)	% Activity (% activity of PDE IV B versus control) (Test Dose 10^−7 M)
COc1cnc(C(O)Cn2cc[nH]c2=O)cc1OCCCCCc1ccccc1 (stereo not drawn) [Compound 18, 1,3-dihydro-1-[2-hydroxy-2-[5-methoxy-4-[(5-phenylpentyl)oxy]-2-pyridinyl]ethyl]-2H-imidazol-2-one]	77%	–
COc1ccc(C(C)Cn2cc[nH]c2=NC#N)nc1OC1CCCC1 (racemic) [Compound 22, (±)-[1-[2-[6-(cyclopentyloxy)-5-methoxy-2-pyridinyl]propyl]-1,3-dihydro-2H-imidazol-2-ylidene]cyanamide]	–	25%
COc1cnc(C(C)(O)Cn2cc[nH]c2=O)cc1OCCCCCc1ccccc1 (racemic) [Compound 23, (±)-1,3-dihydro-1-[2-hydroxy-2-[5-methoxy-4-[(5-phenylpentyl)oxy]-2-pyridinyl]propyl]-2H-imidazol-2-one]	35%	–
